{"source": "patent US20050136481A1", "about": "“Systems and methods for predicting the structure and function of multipass transmembrane proteins” (priority 2003, published 2005)", "key": {"rhodopsin [1]": {"target": "T1, rhodopsin (Bos taurus, UniProt P02699)", "T1 sequence (P02699 whole entry)": "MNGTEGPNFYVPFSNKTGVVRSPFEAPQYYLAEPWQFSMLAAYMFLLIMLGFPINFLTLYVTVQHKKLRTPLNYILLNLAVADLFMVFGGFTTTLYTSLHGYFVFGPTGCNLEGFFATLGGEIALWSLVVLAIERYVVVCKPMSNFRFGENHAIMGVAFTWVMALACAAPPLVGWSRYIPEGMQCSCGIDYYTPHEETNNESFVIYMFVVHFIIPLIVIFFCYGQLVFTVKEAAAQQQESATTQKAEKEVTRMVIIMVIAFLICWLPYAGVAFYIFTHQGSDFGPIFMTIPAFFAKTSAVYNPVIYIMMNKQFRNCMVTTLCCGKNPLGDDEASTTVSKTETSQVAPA", "conditions": "Okada et al., 2001; cited from earlier work"}, "bovine rhodopsin": {"target": "bovine rhodopsin (Bos taurus, UniProt P02699)", "sequence (P02699 whole entry)": "as above", "assay": "HierDock binding energy calculation (Eq. 1) of retinal ligands docked into the rhodopsin structure", "conditions": "all-trans-retinal versus 11-cis-retinal, HierDock Eq. 1", "description": "The negative of the molecular surface of the protein was used to define potential binding regions within the target protein over which the various ligand conformations are to be sampled. The void regions are mapped with spheres generated over the whole target protein using the Sphgen program in DOCK (see Kuntz laboratory at UCSF, San Francisco, Calif.).\nTo locate the most favorable ligand binding site(s), DOCK 4.0 (Ewing and Kuntz, 1997, incorporated herein by reference) can be used to generate a set of conformations for binding the ligand of interest (e.g. in the case of rhodopsin, 11-cis-retinal—a ligand known to bind to bovine rhodopsin) to each of the overlapping docking regions identified above. For this docking step, a bump filter of 10, a non-distance-dependent dielectric constant of 1.0, and a cutoff of 10 Å may be used for energy evaluation. These values may be adjusted according to specific target proteins. […]\nThe ligand/protein conformations from Step 5 are further energy-minimized with all atoms (protein, lipid, and ligand) movable using conjugate gradients. The structure with the binding energy calculated by Eq. 1 is selected as: BE1=Energy[ligand in protein complex]−Energy[free Ligand in solvent] […]\nHere the energy of the ligand in water is calculated using DREIDING FF and analytical volume Generalized-Born continuum solvation (GBCS) method. […]"}, "rhodopsin [2]": {"target": "T1, rhodopsin", "conditions": "experimental result, retinal ligand/protein complex, Okada et al., 2001; cited from earlier work"}}}
{"smiles": "CC1=C(/C=C/C(C)=C/C=C/C(C)=C/C=O)C(C)(C)CCC1", "note": "[11-cis-retinal]", "values": [{"measurement": "effect on G-protein signaling", "setting": "rhodopsin [1]", "value": "inverse agonist"}]}
{"smiles": "CC1=C(/C=C/C(C)=C/C=C/C(C)=C/C=O)C(C)(C)CCC1", "note": "[all-trans-retinal]", "values": [{"measurement": "difference in binding energy", "setting": "bovine rhodopsin", "value": 32, "unit": "kcal/mol"}]}
{"smiles": "CC1=C(/C=C/C(C)=C/C=C/C(C)=C/C=O)C(C)(C)CCC1", "note": "[retinal]", "values": [{"measurement": "energy stored upon isomerization in the protein", "setting": "rhodopsin [2]", "value": "34.7 ± 2.2", "unit": "kcal/mol"}]}
